From patent publication US8158811B2, “Unsaturated fatty hydroxy acid derivatives and the dermocosmetologic use thereof” (Pierre Fabre Dermo-Cosmetique, priority 2005, dated 2012)

Tests used:
[1] = molecular target: T1, PAR-2 receptors (Homo sapiens, UniProt P55085); test: calcium flux induced by trypsin stimulation of PAR-2 receptors in HaCaT keratinocytes (Fluo-4/AM); type: cell-based; settings: trypsin 10 nM
T1 construct: PAR-2 receptors for trypsin present in human keratinocytes from the HaCaT line; endogenous in cells; host or cells: HaCaT human keratinocytes
T1 sequence (P55085 26-397): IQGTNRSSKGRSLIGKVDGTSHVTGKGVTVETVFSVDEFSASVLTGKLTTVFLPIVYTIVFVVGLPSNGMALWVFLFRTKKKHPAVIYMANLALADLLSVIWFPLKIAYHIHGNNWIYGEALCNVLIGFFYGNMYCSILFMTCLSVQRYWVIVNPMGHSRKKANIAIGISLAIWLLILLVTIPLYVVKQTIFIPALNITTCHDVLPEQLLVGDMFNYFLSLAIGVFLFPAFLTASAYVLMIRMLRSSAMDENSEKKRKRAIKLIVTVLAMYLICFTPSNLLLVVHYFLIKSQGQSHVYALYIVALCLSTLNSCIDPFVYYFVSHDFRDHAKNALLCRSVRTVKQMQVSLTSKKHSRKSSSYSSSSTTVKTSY
Description: We therefore considered evaluating anti-PAR-2 activity of hydroxyl acid derivatives of formula I on the influx of intracellular calcium induced after specific stimulation by PAR-2 receptors for trypsin present in human keratinocytes from the HaCaT line.
This technique is based on the use of an esterified fluorescent probe by an AM group which facilitates its penetration by passive diffusion into the cell. The probe used is Fluo-4/AM. Only the de-esterified form bound to the calcium ion is excitable in fluorescence (at 485 nm) and emits at 535 nm.
In vitro, at the cell level, specific stimulation of the PAR-2 receptors by trypsin leads to mobilisation of intra and extracellular calcium detected with the aid of the fluorescent probe.

[2] = tested on: murine melanome cell line B16-F10; test: melanin synthesis, colorimetric assay, basal and after α-MSH; type: cell-based; settings: basal situation, 30 μg/ml
Protocol: The modulating effect of unsaturated fatty hydroxy acid derivatives on melanogenesis was analysed. To do this, measurement of melanin synthesis by colorimetric assay was performed on a murine melanome cell line: line B16-F10.
The effect of products was investigated in a basal situation and after stimulation by α-MSH in order to determine depigmenting capacity.
Levels of extracellular and intracellular melanin were measured by spectrophotometry at a wavelength of 405 nm according to the protocol described by Anob et al., 1999. The amount of pigment was determined using a standard melanin range and analysis on Microwin software (Berthold Biotechnologies). A total protein assay was carried out for intracellular melanin samples by means of the BCA-Copper method at 540 nm. The standard range was made up using standard protein BSA (Bovine Serum Albumin).

[3] = tested on: Interleukin 8; test: release of Interleukin 8 by keratinocytes NHK stimulated with PMA + calcium ionophore A23187 (ELISA); type: cell-based, human; settings: IL8 release

Row | % inhibition ([1]; 10 μg/ml) [%] | % stimulation ([1]; 10 μg/ml) [%] | % inhibition ([1]; 30 μg/ml) [%] | % stimulation ([1]; 30 μg/ml) [%] | % inhibition ([1]; 100 μg/ml) [%] | % stimulation ([1]; 100 μg/ml) [%] | % inhibition ([1]; 0.1 μg/ml) [%] | % stimulation ([1]; 0.1 μg/ml) [%] | % inhibition ([1]; 0.3 μg/ml) [%] | % stimulation ([1]; 0.3 μg/ml) [%] | % inhibition ([1]; 1 μg/ml) [%] | % stimulation ([1]; 1 μg/ml) [%] | % inhibition ([1]; 3 μg/ml) [%] | % stimulation ([1]; 3 μg/ml) [%] | SMILES | inhibition of melanin synthesis [2] [%] | ED50 [3] [mg/L]
1 | −17 | 15.33 | −4 | 14.10 | 39 | 9.84 |  |  |  |  |  |  |  |  | O=C(O)/C=C/CCCCCCCCCCCO [n=10, R=H, Rn=H, R1=H, 14-hydroxy-tetradec-2t-enoic acid] | 15 | 
2 |  |  |  |  |  |  |  |  |  |  |  |  |  |  | O=C(O)/C=C/CCCCCCCCCCCCCCO [n=13, R=H, Rn=H, R1=H, 17-hydroxy-heptadec-2t-enoic acid] |  | <3
3 | 42 | 9.55 |  |  |  |  | −1 | 13.78 | 6 | 13.06 | 9 | 12.74 | 7 | 12.97 | O=C(O)C(F)=CCCCCCCCCCCCCCCO [n=13, R=H, Rn=H, R1=F, 17-hydroxy-heptadec-2-fluoro-2-enoic acid] |  | <3
